According to US20240391859A1, “ALDEHYDE COMPOSITION” (MITSUBISHI GAS CHEMICAL COMPANY, INC., priority 2021, published 2024):

Assays:
[1] = Evaluation of threshold of smell; settings: diluted with dipropylene glycol; lower limit concentration at which smell can be distinguished
Procedure: A filter paper having a width of 8 mm and a length of 15 cm was impregnated with each diluent and a lower limit concentration at which smell can be distinguished by a method in which a specialized panelist sniffs was evaluated. As the lower limit concentration is lower, the threshold of smell is lower, and the intensity and diffusibility of the aroma are more excellent.

Bhas42 cells = experiment: Carcinogenicity prediction test (transformation test based on OECD GD231); format: cell-based; settings: in vitro
Procedure: Using the aldehyde compositions obtained in Examples and Lilial (3-(p-tert-butylphenyl)-2-methylpropanal), a transformation test (an in vitro carcinogenicity prediction test using Bhas42 cells) was performed based on OECD GD231 to determine whether the carcinogenicity was negative or positive. When the result of this test is negative, it is predicted that there is no possibility of causing carcinogenicity, and safety is high.

In the case of CC(C=O)Cc1ccc(C(C)(C)C)cc1 (centres unmarked) [Comparative Example 5, 3-(p-tert-butylphenyl)-2-methylpropanal], the Threshold of smell [1] is reported as 1 ppm and the Carcinogenicity prediction test (Bhas42 cells) is reported as “Positive”.
